Measured values reported in US10266549B2, “ULK1 inhibitors and methods using same” (SALK INSTITUTE FOR BIOLOGICAL STUDIES, priority 2014, dated 2019).

Target: ULK1 (Homo sapiens (Human), UniProt O75385)
Assay: ULK1 inhibition assay (Table 1)
Format: biochemical
Conditions: * = tested as a mixture of regioisomers

Chain of ULK1 (O75385 whole entry, species assumed): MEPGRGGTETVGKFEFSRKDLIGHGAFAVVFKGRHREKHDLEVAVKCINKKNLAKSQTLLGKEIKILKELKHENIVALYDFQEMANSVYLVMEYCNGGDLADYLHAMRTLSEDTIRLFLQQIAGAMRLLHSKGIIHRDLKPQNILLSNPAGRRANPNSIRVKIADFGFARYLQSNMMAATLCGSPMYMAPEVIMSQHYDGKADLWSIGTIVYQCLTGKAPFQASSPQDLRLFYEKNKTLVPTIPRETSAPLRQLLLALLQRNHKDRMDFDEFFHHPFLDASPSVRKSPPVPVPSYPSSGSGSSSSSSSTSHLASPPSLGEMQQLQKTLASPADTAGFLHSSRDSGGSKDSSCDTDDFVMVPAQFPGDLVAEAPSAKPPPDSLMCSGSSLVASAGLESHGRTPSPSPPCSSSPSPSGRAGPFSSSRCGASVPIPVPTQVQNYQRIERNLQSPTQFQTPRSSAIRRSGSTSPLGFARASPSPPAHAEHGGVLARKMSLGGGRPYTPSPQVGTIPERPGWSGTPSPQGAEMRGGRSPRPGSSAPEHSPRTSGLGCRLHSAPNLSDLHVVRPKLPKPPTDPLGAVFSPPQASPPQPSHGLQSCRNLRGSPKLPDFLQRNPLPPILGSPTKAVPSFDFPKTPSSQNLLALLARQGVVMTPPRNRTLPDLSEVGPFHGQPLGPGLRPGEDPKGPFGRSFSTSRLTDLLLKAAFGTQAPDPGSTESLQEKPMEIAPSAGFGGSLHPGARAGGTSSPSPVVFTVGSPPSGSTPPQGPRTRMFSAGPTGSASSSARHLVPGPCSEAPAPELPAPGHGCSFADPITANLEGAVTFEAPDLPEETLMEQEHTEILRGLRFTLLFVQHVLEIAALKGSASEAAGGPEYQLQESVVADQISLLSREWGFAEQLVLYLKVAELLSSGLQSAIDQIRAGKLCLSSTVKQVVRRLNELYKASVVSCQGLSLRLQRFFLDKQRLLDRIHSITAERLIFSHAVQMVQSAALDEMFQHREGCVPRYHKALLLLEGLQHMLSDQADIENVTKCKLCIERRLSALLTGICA

Row | Compound | IC50 [nM]
1 | O=C1CCc2cc(Nc3nc(OC4Cc5ccccc5C4)ncc3C(F)(F)F)ccc2N1 [180b, 6-((2-((2,3-dihydro-1H-inden-2-yl)oxy)-5-(trifluoromethyl)pyrimidin-4-yl)amino)-3,4-dihydroquinolin-2(1H)-one] | > 2000
2 | FC(F)(F)c1cnc(Nc2cnc3[nH]ccc3c2)nc1Nc1ccccc1 [181a, N4-phenyl-N2-(1H-pyrrolo[2,3-b]pyridin-5-yl)-5-(trifluoromethyl)pyrimidine-2,4-diamine] | < 200
3 | Nc1ncc(C(F)(F)F)c(Nc2cnc3[nH]ccc3c2)n1 [181b, N4-(1H-pyrrolo[2,3-b]pyridin-5-yl)-5-(trifluoromethyl)pyrimidine-2,4-diamine] | 200 to 2000
4 | CNc1nc(Nc2cnc3[nH]ccc3c2)ncc1C(F)(F)F [182a, N4-methyl-N2-(1H-pyrrolo[2,3-b]pyridin-5-yl)-5-(trifluoromethyl)pyrimidine-2,4-diamine] | < 200
5 | CNc1ncc(C(F)(F)F)c(Nc2cnc3[nH]ccc3c2)n1 [182b, N2-methyl-N4-(1H-pyrrolo[2,3-b]pyridin-5-yl)-5-(trifluoromethyl)pyrimidine-2,4-diamine] | 200 to 2000
6 | COc1cc(Nc2nc(-n3nnc4ccccc43)ncc2Br)cc(O)c1OC [Example 331b] | 200 to 2000
7 | CNC(=O)c1ccccc1Nc1nc(Nc2ccc(N3CCOCC3)cc2OC)ncc1Cl [compound 12, 2-(5-Chloro-2-(2-methoxy-4-morpholinophenylamino)pyrimidin-4-ylamino)-N-methylbenzamide] | < 200
8 | CNC(=O)c1ccccc1Nc1nc(Nc2ccc(N3CCOCC3)cc2OC)ncc1Br [compound 13, 2-(5-Bromo-2-(2-methoxy-4-morpholinophenylamino)pyrimidin-4-ylamino)-N-methylbenzamide] | 200 to 2000
9 | CNC(=O)c1ccccc1Nc1nc(Nc2cc(OC)c(OC)c(OC)c2)ncc1Cl [compound 15, 2-(5-Chloro-2-(3,4,5-trimethoxyphenylamino)pyrimidin-4-ylamino)-N-methylbenzamide] | < 200
10 | CNC(=O)c1ccccc1Nc1nc(Nc2cc(OC)ccc2C)ncc1Cl [compound 16, 2-(5-Chloro-2-(5-methoxy-2-methylphenylamino)pyrimidin-4-ylamino)-N-methylbenzamide] | < 200
11 | CNC(=O)c1ccccc1Nc1nc(Nc2cc(OC)ccc2C)ncc1Br [compound 17, 2-(5-Bromo-2-(5-methoxy-2-methylphenylamino)pyrimidin-4-ylamino)-N-methylbenzamide] | < 200
12 | CNC(=O)c1ccccc1Nc1nc(Nc2ccc3[nH]ccc3c2)ncc1Cl [compound 18, 2-(2-(1H-indol-5-ylamino)-5-chloropyrimidin-4-ylamino)-N-methylbenzamide] | 200 to 2000
13 | CNC(=O)c1ccccc1Nc1nc(Nc2ccc3c(c2)CCC(=O)N3)ncc1Cl [compound 19, 2-(5-Chloro-2-(2-oxo-1,2,3,4-tetrahydroquinolin-6-ylamino)pyrimidin-4-ylamino)-N-methylbenzamide] | < 200
14 | CNC(=O)c1ccccc1Nc1nc(Nc2ccc3c(c2)CCC(=O)N3)ncc1Br [compound 20, 2-((5-Bromo-2-((2-oxo-1,2,3,4-tetrahydroquinolin-6-yl)amino)pyrimidin-4-yl)amino)-N-methylbenzamide] | < 200
15 | CNC(=O)c1ccccc1Nc1nc(Nc2ccc3c(c2)CC(=O)N3)ncc1Cl [compound 21, 2-(5-Chloro-2-(2-oxoindolin-5-ylamino)pyrimidin-4-ylamino)-N-methylbenzamide] | < 200
16 | COc1cc(Nc2ncc(Br)c(Nc3ccccn3)n2)cc(OC)c1OC [compound 22, Bromo-N^4-(pyridin-2-yl)-N^2-(3,4,5-trimethoxyphenyl) pyrimidine-2,4-diamine] | < 200
17 | CNC(=O)c1ccccc1Nc1nc(Nc2ccc3[nH]ccc3c2)ncc1Br [compound 23, 2-(2-(1H-indol-5-ylamino)-5-bromopyrimidin-4-ylamino)-N-methylbenzamide] | < 200
18 | COc1ccc(Nc2nc(Nc3cc(OC)c(OC)c(OC)c3)ncc2Cl)cn1 [compound 24, 5-Chloro-N^4-(6-methoxypyridin-3-yl)-N^2-(3,4,5-trimethoxyphenyl)pyrimidine-2,4-diamine] | < 200
19 | COc1ccc(Nc2nc(Nc3cc(OC)c(OC)c(OC)c3)ncc2Br)cn1 [compound 25, 5-Bromohloro-N^4-(6-methoxypyridin-3-yl)-N^2-(3,4,5-trimethoxyphenyl)pyrimidine-2,4-diamine] | < 200
20 | COc1ccc(C)c(Nc2ncc(Br)c(Nc3ccccn3)n2)c1 [compound 26, 5-Bromo-N^2-(5-methoxy-2-methylphenyl)-N^4-(pyridin-2-yl) pyrimidine-2,4-diamine] | 200 to 2000
21 | COc1ccc(Nc2nc(Nc3ccc(N4CCOCC4)cc3OC)ncc2Cl)cn1 [compound 27, 5-Chloro-N^2-(2-methoxy-4-morpholinophenyl)-N^4-(6-methoxypyridin-3-yl)pyrimidine-2,4-diamine] | > 2000

Row | Compound | IC50 [nM]
22 | COc1ccc(Nc2nc(Nc3ccc(N4CCOCC4)cc3OC)ncc2Br)cn1 [compound 28, 5-Bromo-N^2-(2-methoxy-4-morpholinophenyl)-N^4-(6-methoxypyridin-3-yl)pyrimidine-2,4-diamine] | 200 to 2000
23 | COc1ccc(Nc2nc(Nc3ccc4[nH]ccc4c3)ncc2Cl)cn1 [compound 29, 5-Chloro-N^2-(1H-indol-5-yl)-N^4-(6-methoxypyridin-3-yl) pyrimidine-2,4-diamine] | 200 to 2000
24 | COc1ccc(Nc2nc(Nc3ccc4[nH]ccc4c3)ncc2Br)cn1 [compound 30, 5-Bromo-N^2-(1H-indol-5-yl)-N^4-(6-methoxypyridin-3-yl) pyrimidine-2,4-diamine] | < 200
25 | COc1cc(Nc2ncc(C(F)(F)F)c(NCc3cccc(S(C)(=O)=O)c3)n2)cc(OC)c1OC [compound 31, N^4-(3-(Methylsulfonyl)benzyl)-5-(trifluoromethyl)-N^2-(3,4,5-trimethoxyphenyl)pyrimidine-2,4-diamine] | < 200
26 | CS(=O)(=O)c1cccc(CNc2nc(Nc3ccc4c(c3)CCC(=O)N4)ncc2C(F)(F)F)c1 [compound 32, 6-(4-(3-(Methylsulfonyl)benzylamino)-5-(trifluoromethyl)pyrimidin-2-ylamino)-3,4-dihydroquinolin-2(1H)-one] | 200 to 2000
27 | CS(=O)(=O)c1cccc(CNc2nc(Nc3ccc4c(c3)CC(=O)N4)ncc2C(F)(F)F)c1 [compound 33, 5-((4-((3-(Methylsulfonyl)benzyl)amino)-5-(trifluoromethyl)pyrimidin-2-yl)amino)indolin-2-one] | 200 to 2000
28 | COc1ccc(C)c(Nc2ncc(Cl)c(Nc3ccc(OC)nc3)n2)c1 [compound 34, 5-Chloro-N^2-(5-methoxy-2-methylphenyl)-N^4-(6-methoxypyridin-3-yl)pyrimidine-2,4-diamine] | > 2000
29 | CNC(=O)c1ccccc1Nc1nc(Nc2cc(OC)c(OC)c(OC)c2)ncc1C(F)(F)F [compound 36, N-Methyl-2-(5-(trifluoromethyl)-2-(3,4,5-trimethoxyphenylamino)pyrimidin-4-ylamino)benzamide] | > 2000
30 | COc1ccc(Nc2nc(Nc3cc(OC)c(OC)c(OC)c3)ncc2C(F)(F)F)cn1 [compound 37, N^4-(6-Methoxypyridin-3-yl)-5-(trifluoromethyl)-N^2-(3,4,5-trimethoxyphenyl)pyrimidine-2,4-diamine] | < 200
31 | COc1cc(Nc2ncc(C(F)(F)F)c(Nc3ccccn3)n2)cc(OC)c1OC [compound 38, N^4-(Pyridin-2-yl)-5-(trifluoromethyl)-N^2-(3,4,5-trimethoxyphenyl)pyrimidine-2,4-diamine] | 200 to 2000
32 | CNC(=O)c1ccccc1Nc1nc(Nc2ccc(N3CCOCC3)cc2OC)ncc1C(F)(F)F [compound 39, 2-(2-(2-Methoxy-4-morpholinophenylamino)-5-(trifluoromethyl)pyrimidin-4-ylamino)-N-methylbenzamide] | < 200
33 | COc1ccc(Nc2nc(Nc3ccc(N4CCOCC4)cc3OC)ncc2C(F)(F)F)cn1 [compound 40, N^2-(2-methoxy-4-morpholinophenyl)-N^4-(6-methoxypyridin-3-yl)-5-(trifluoromethyl)pyrimidine-2,4-diamine] | > 2000
34 | COc1ccc(C)c(Nc2ncc(Cl)c(NCc3cccc(S(C)(=O)=O)c3)n2)c1 [compound 41, 5-Chloro-N^2-(5-methoxy-2-methylphenyl)-N^4-(3-(methylsulfonyl)benzyl)pyrimidine-2,4-diamine] | > 2000
35 | CNC(=O)c1ccccc1Nc1nc(Nc2cc(OC)ccc2C)ncc1C(F)(F)F [compound 42, 2-(2-(5-Methoxy-2-methylphenylamino)-5-(trifluoromethyl)pyrimidin-4-ylamino)-N-methylbenzamide] | < 200
36 | O=C1CCc2cc(Nc3ncc(C(F)(F)F)c(NCc4ccccc4)n3)ccc2N1 [compound 43, 6-(4-(Benzylamino)-5-(trifluoromethyl)pyrimidin-2-ylamino)-3,4-dihydroquinolin-2(1H)-one] | < 200
37 | CNC(=O)c1ccccc1Nc1nc(Nc2cccc(OC)c2)ncc1Cl [compound 44, 2-(5-Chloro-2-(3-methoxyphenylamino)pyrimidin-4-ylamino)-N-methylbenzamide] | < 200
38 | COc1cc(N2CCOCC2)ccc1Nc1ncc(C(F)(F)F)c(Nc2ccccn2)n1 [compound 46, N^2-(2-Methoxy-4-morpholinophenyl)-N^4-(pyridin-2-yl)-5-(trifluoromethyl) pyrimidine-2,4-diamine] | 200 to 2000
39 | O=C1CCc2cc(Nc3ncc(C(F)(F)F)c(Nc4ccccc4)n3)ccc2N1 [compound 48, 6-(4-(Phenylamino)-5-(trifluoromethyl)pyrimidin-2-ylamino)-3,4-dihydroquinolin-2(1H)-one] | < 200
40 | CNC(=O)c1ccccc1Nc1nc(Nc2ccc3c(c2)OCO3)ncc1Cl [compound 49, 2-(2-(Benzo[d][1,3]dioxol-5-ylamino)-5-chloropyrimidin-4-ylamino)-N-methylbenzamide] | < 200
41 | CNC(=O)c1ccccc1Nc1nc(Nc2ccc3c(c2)OCCO3)ncc1Cl [compound 51, 2-(5-Chloro-2-(2,3-dihydrobenzo[b][1,4]dioxin-6-ylamino)pyrimidin-4-ylamino)-N-methylbenzamide] | < 200
